Here are results for 4 substances from US20220273793A1, “HORSE IL-31 INDUCED PRURITUS MODEL” (priority 2021, published 2022).

Where “and” joins values, the source holds several entries; their conditions need not be identical. Identical values can stand only once.

This test relates to equine IL-31. Put plainly: Equine challenge study using the IL-31 itch model after IL-31 mimotope vaccines. It is filed as in vivo, Horse. To be noted: for 1st Challenge Score (pruritus score): CRM197 conjugate 25 μg/dose, SP oil + CpG, IL-31 challenge Day 14 post-boost; for 1st Challenge Score (pruritus score) / Percent Change, 1st Challenge vs Historical Score / Percent Change, 2nd Challenge vs Historical Score / 2nd Challenge Score (pruritus score): individual horses; for 1st Challenge Average % Change in pruritus scores / Percent Change, 1st Challenge vs Historical Score: Day 14 post-boost; for 1st Challenge Average % Change in pruritus scores / 2nd Challenge Average % Change in pruritus scores: group mean; for 2nd Challenge Average % Change in pruritus scores / Percent Change, 2nd Challenge vs Historical Score: Day 105 post-boost; for 2nd Challenge Score (pruritus score): IL-31 challenge Day 105 post-boost; for reduction in itch (relative to historic scores): vaccinated horses, after 105 days of the final booster dose. An excerpt:
Based on the high antibody titers elicited by horses vaccinated with CRM197 conjugated IL 31 mimotopes (FIG. 4), horses from the serology studies were utilized in a challenge study using the IL-31 itch model developed by the present inventors. Selected horses were vaccinated with an additional boost of the corresponding mimotope vaccines, after conclusion of the serology study, and were challenged with IL-31 at Day 14 after the final boost and at Day 105 after the final boost.
Various candidate IL-31 mimotope constructs were evaluated, including ZTS-7240 (comprising SEQ ID NO:4) mimotope (constrained) corresponding to the 1505 region and ZTS-241 (comprising SEQ ID NO:6) mimotope (linear) corresponding to the A helix of the IL-31 homology model (FIG. 2). Study design is outlined in Table 6 below:
There were no treatment groups T02 and T04 assigned in this study in order to continue to keep the group designations of respective horses from the first serology study. One horse each from treatment groups T02 and T04 from the first serology were used in treatment group T08 as negative controls (No booster dose given; challenged on Day 14 and Day 105 along with other treatment groups).

equine IL-31, sequence (as listed by the source): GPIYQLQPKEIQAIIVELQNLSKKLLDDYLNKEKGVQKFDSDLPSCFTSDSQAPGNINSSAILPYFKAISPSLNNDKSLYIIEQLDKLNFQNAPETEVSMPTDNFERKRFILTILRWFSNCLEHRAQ

Turning to “Ac-CGSGGPIYQLQPKEIQAIIVELQNLSKK-NH2 (not fully specified; printed as Ac-CGSGGPIYQLQPKEIQAIIVELQNLSKK-NH2; numbers in words are those of the source; also: CRM197 conjugate) [ZTS-7241, tested as CRM197 conjugate with SP oil + CpG]”, the “reduction in itch (relative to historic scores)” value is 68%. Also, under “T03, T05, T06, T07: IM”, the “1st Challenge Score (pruritus score)” value was 12 and 5 and 38; the “1st Challenge Average % Change in pruritus scores” value (“1st Challenge Average % Change” for short) was −82.18%; the “Percent Change, 1st Challenge vs Historical Score” value (“Percent Change, 1st Challenge” for short) is −86.44% and −94.87% and −65.23%; the “2nd Challenge Average % Change in pruritus scores” value (“2nd Challenge Average % Change” below) is on record as −68.70%. In addition, where the note is “T03, T05, T06, T07: IM”, the “Percent Change, 2nd Challenge vs Historical Score” value (“Percent Change, 2nd Challenge” below) was −87.57% and −48.72% and −69.81%; the “2nd Challenge Score (pruritus score)” value is 11 and 50 and 33.

Take “Ac-CGSGKEKGVQKFDS-NH2 (not fully specified; printed as Ac-CGSGKEKGVQKFDS-NH2; numbers in words are those of the source; also: CRM197 conjugate) [ZTS-7242, tested as CRM197 conjugate with SP oil + CpG]”: where the note is “T03, T05, T06, T07: IM”, the “1st Challenge Score (pruritus score)” value was 53 and 45 and 54; the “1st Challenge Average % Change” value is −20.58%; the “Percent Change, 1st Challenge” value is −23.96% and −17.43% and −20.35%; the “2nd Challenge Average % Change” value was determined as 46.28%. Also, under “T03, T05, T06, T07: IM”, the “Percent Change, 2nd Challenge” value is 22.94% and 69.62%; the “2nd Challenge Score (pruritus score)” value is 67 and 115.

Consider “Ac-CGSGNSSAILPYFKAISPSLNNDKSLYIIEQLDKLNF-NH2 (not fully specified; printed as Ac-CGSGNSSAILPYFKAISPSLNNDKSLYIIEQLDKLNF-NH2; numbers in words are those of the source; also: CRM197 conjugate) [ZTS-765, tested as CRM197 conjugate with SP oil + CpG]”, for which, under “T01, SC”, the “1st Challenge Score (pruritus score)” value was 17 and 11; the “1st Challenge Average % Change” value is on record as −82.12%; the “Percent Change, 1st Challenge” value is −74.81% and −89.42%; the “2nd Challenge Average % Change” value is given as −25.88%. Further, for the setting “T01, SC”, the “Percent Change, 2nd Challenge” value is −39.26% and −12.50%; the “2nd Challenge Score (pruritus score)” value is 41 and 91. In addition, where the note is “T03, T05, T06, T07: IM”, the “1st Challenge Score (pruritus score)” value was 4 and 33 and 21; the “1st Challenge Average % Change” value is −77.62%; the “Percent Change, 1st Challenge” value was −94.54% and −66.33% and −72.00%; the “2nd Challenge Average % Change” value is on record as −45.03%. In addition, where the note is “T03, T05, T06, T07: IM”, the “Percent Change, 2nd Challenge” value was −23.60% and −40.82% and −70.67%; the “2nd Challenge Score (pruritus score)” value was 56 and 58 and 22.

Regarding “Ac-C[Ahx]C(mT2b)TEVSMPTDNFERKRFILTC(mT2b)-NH2 [ZTS-7240]”, the “reduction in itch (relative to historic scores)” value was 80%. Also, for the setting “T03, T05, T06, T07: IM”, the “1st Challenge Score (pruritus score)” value is 6 and 21 and 18; the “1st Challenge Average % Change” value is −84.61%; the “Percent Change, 1st Challenge” value is −94.13% and −76.74% and −82.94%; the “2nd Challenge Average % Change” value is −84.27%. Further, for the setting “T03, T05, T06, T07: IM”, the “Percent Change, 2nd Challenge” value is −92.18% and −83.39% and −77.25%; the “2nd Challenge Score (pruritus score)” value is 8 and 15 and 24.
